Results from patent publication US20230235397A1, “METHODS FOR CLASSIFICATION AND TREATMENT OF PSYCHOTIC DISORDER SUBJECTS” (CENTRE HOSPITALIER UNIVERSITAIRE VAUDOIS (CHUV), priority 2019, published 2023).

Tested on: Gclm-KO+GBR mice
Experiment: MitoQ treatment of Gclm-KO+GBR mice (oxidative stress model), markers in anterior cingulate cortex
Assay type: in vivo
From the text: Treatment with MitoQ (P21-P40) in Gclm-KO mice treated with GBR12909 normalizes NIX, FUNDC1 and LC3B expression levels as well as miR-137 expression intensity when compared to values observed for wild-type mice (FIG. 7). […] Thus, MitoQ has been unexpectedly found to be useful in reversing the miR-137 overexpression, mitophagy and parvalbumin interneuron impairment induced by oxidative stress.
Example 9 relates to an animal model of oxidative stress. Oxidative stress elicits mitophagy in the anterior cingulated cortex (ACC) of Gclm-KO mice (transgenic mice carrying permanent defect in glutathione GSH synthesis). […] Because extranuclear localization of 8-oxo-dG labeling was observed, it could be surmised that mitochondrial DNA (mtDNA) was affected. […] In comparison with WT mice (Gclm-WT+PBS, wherein PBS refers to phosphate-buffered saline, a common buffer used in these experiments as vehicle), levels of the mitophagy receptors NIX and FUNDC1 and of the autophagosome LC3B were reduced in the ACC of Gclm-KO mice (Gclm-KO+PBS, at P40). […] Taken together, these observations are consistent with an oxidative stress-induced mitophagy deficit in prefrontal parvalbumin interneurons.
It has been shown that miR-137 plays a functional role in modulating synaptic function and in regulating the expression of the NIX and FUNDC1 mitophagy receptors.
In view of the detrimental effects of oxidative stress on integrity of parvalbumin interneurons, miR-137 expression level as well as mitophagy during preweaning and pubertal stages of development, it was evaluated whether MitoQ treatment, a selective mitochondria targeted-antioxidant, could rescue these deficits in young KO mice. Treatment with MitoQ (P21-P40) in Gclm-KO+GBR mice normalized NIX, FUNDC1 and LC3B expression levels as well as miR-137 expression intensity, when compared to WT values (FIG. 7). […] Thus, MitoQ can reverse the oxidative stress induced miR-137 overexpression, mitophagy and parvalbumin interneuron impairment, highlighting that the upregulation of miR-137 and subsequent mitophagy defect constitutes the molecular mechanism underlying the oxidative stress-induced parvalbumin interneuron impairment.

[1] = ACC of Gclm-KO+GBR animals, following treatment with MitoQ
[2] = MitoQ P21-P40, Gclm-KO+GBR mice, ACC, compared to WT values (FIG. 7)

## COC1=C(OC)C(=O)C(CCCCCCCCCC[PH](c2ccccc2)(c2ccccc2)c2ccccc2)=C(C)C1=O [MitoQ, mitoquinone]
[1]
  abnormalities in cell body numbers of parvalbumin interneurons: restored to WT levels
  staining intensity of parvalbumin interneuron processes: restored to WT levels
[2]
  FUNDC1 expression level: normalized
  LC3B expression level: normalized
  NIX expression level: normalized
  miR-137 expression intensity: normalized
